Source: patent US20230028880A1, “CD38-BINDING AGENTS AND USES THEREOF” (Biohaven Therapeutics Ltd., priority 2019, published 2023)
“And” between values parts separate entries of the source, which are not always exact repeats. Equal entries are not always repeated. “Also recorded” adds a separate entry of the source.

Key:
Daudi cells = assay: Ternary binding assay: recruitment of PE-labeled human IgG1k to Daudi cells (flow cytometry, MFI); assay type: cell-based; conditions: duplicate columns
Summary of the method: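 Daudi cells, 100,000 per well, were suspended in flow buffer (1% BSA, 0.5 mM EDTA, PBS) containing 11.1 ug/mL PE-labeled human IgG1k and incubated with ½-log compound dilutions (8–12 concentrations) for 30 min at 37 °C. After two washes with 0.5% Tween 20 buffer, mean fluorescence was read by flow cytometry and fitted with a four-parameter variable-slope model.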

[1] = system: multiple myeloma patient bone marrow plasma cells (CD38+ CD138+); assay: Patient bone marrow with autologous CIML NK cells: reduction of plasma cells; assay type: cell-based, human; conditions: 4 hr, IVIG 10 ug/ml (FIG. 7)
Protocol: (§1) Patient bone marrow (3 ml) and blood (20 ml) were shipped at ambient temperature from Discovery Biosciences. Bone marrow was diluted 1:1 with PBS, and […] of bone marrow-PBS mixture was aliquoted into 96 deep well plates. Bone marrow cells were incubated overnight until CIML cells were added next day.
(§2) PBMC were isolated from blood by Ficoll density gradient centrifugation. PBMC were centrifuged at 400 g for 10 min and re-suspended in EasySep buffer. NK cells were isolated using NK cell isolation kits from […] Technologies according to kit's manufacturers' instructions.
(§3) NK cells were re-suspended at 1×10^6 cells/ml in XVIVO15, 10% Human Serum, IL-15 (50 ng/ml), IL-12 (10 ng/ml), IL-18 (50 ng/ml), and incubated for 18 hrs. Following overnight incubation with cytokines, NK cells were washed twice with PBS 5% Human Serum Albumin, counted and re-suspended at a cell density of 2×10^5 cells/ml of XVIVO15 media. Twenty microliters (4000 cells) were added per each well containing 50 µl of bone marrow: PBS mixture. […] Control wells received XVIVO15 media. Well contents were mixed by pipetting up and down and plates were centrifuged at 400 g for 1 min.
(§4) The assay was then incubated for 4 hrs at 37° C. 5% CO2. […] Finally, cells were re-suspended in 200 µl of FACS Buffer and analyzed using Attune Flow Cytometer. Data were analyzed using FlowJo software and graphed using GraphPad Prism.

[2] = system: CD56+CD138- CIML NK cells; assay: Patient bone marrow with CIML NK cells: NK cell fratricide; assay type: cell-based, human; conditions: CIML NK cells co-incubated with patient bone marrow for 4 hrs (FIG. 8)
Protocol: as §1, §2, §3, §4

SMILES: CCCCC[C@@H]1NC(=O)[C@H](CCCNC(=N)N)NC(=O)[C@H](C)NC(=O)CSC[C@@H](C(=O)NCCOCCOCCOCCOCCOCCOCCn2nnc3c2CCC2C(CC3)C2COC(=O)N2CCC(C(=O)NCC(=O)N[C@H](CCC(=O)N[C@H](CCC(=O)N[C@H](CCC(=O)O)C(=O)N[C@H](CCC(=O)N[C@H](CCC(=O)NCC(=O)NCC(=O)N[C@@H](CC(=O)O)C(=O)N[C@H]3CSSC[C@@H](C(=O)N[C@H](C(=O)O)[C@@H](C)O)NC(=O)[C@H](Cc4c[nH]c5ccccc45)NC(=O)[C@H](C(C)C)NC(=O)[C@H](CC(C)C)NC(=O)[C@H](CCC(=O)O)NC(=O)CNC(=O)[C@H](CC(C)C)NC(=O)[C@H](Cc4c[nH]cn4)NC(=O)[C@H](Cc4c[nH]c5ccccc45)NC(=O)[C@H](C)NC3=O)C(=O)O)C(=O)O)C(=O)O)C(=O)O)CC2)NC(=O)[C@H](CC(=O)O)NC(=O)[C@H](CCCCC)NC(=O)[C@H](Cc2ccc(-c3ccccc3)cc2)NC(=O)[C@H](CC(C)C)NC(=O)[C@H](C(C)C)NC(=O)CNC(=O)[C@H](CC(=O)O)NC(=O)[C@H](Cc2c[nH]cn2)NC(=O)[C@H](Cc2ccc(O)cc2)NC1=O (stereo partly shown) [I-17]
- MFI, recruitment of PE-labeled human IgG1k to Daudi cells (Daudi cells; compound 0.03 nM): 2516 and 2391
- MFI, recruitment of PE-labeled human IgG1k to Daudi cells (Daudi cells; compound 0.1 nM): 2322 and 2622
- MFI, recruitment of PE-labeled human IgG1k to Daudi cells (Daudi cells; compound 0.3 nM): 2387 and 2457
- MFI, recruitment of PE-labeled human IgG1k to Daudi cells (Daudi cells; compound 1 nM): 3272 and 2451
- MFI, recruitment of PE-labeled human IgG1k to Daudi cells (Daudi cells; compound 3 nM): 2516 and 2680
- MFI, recruitment of PE-labeled human IgG1k to Daudi cells (Daudi cells; compound 10 nM): 7119 and 4086
- MFI, recruitment of PE-labeled human IgG1k to Daudi cells (Daudi cells; compound 30 nM): 3869 and 5244
- MFI, recruitment of PE-labeled human IgG1k to Daudi cells (Daudi cells; compound 100 nM): 7575 and 6333
- MFI, recruitment of PE-labeled human IgG1k to Daudi cells (Daudi cells; compound 300 nM): 7514 and 8562
- MFI, recruitment of PE-labeled human IgG1k to Daudi cells (Daudi cells; compound 1000 nM): 10015 and 9697
- MFI, recruitment of PE-labeled human IgG1k to Daudi cells (Daudi cells; compound 3000 nM): 9069 and 9922
- reduction in the frequencies of CD38+ CD138+ cells in patient bone marrow [1]: effectively reduced frequency of plasma cells; also recorded: can reduce the number of plasma cells
- NK cell numbers / NK cell fratricide [2]: NK cell numbers did not change; also recorded: No or low level of undesired NK cell fratricide
